Ki data for 1 compound are collected here from ChEMBL document CHEMBL3638759, “Substituted 2-aza-bicyclo[2.2.1]heptane-3-carboxylic acid (cyano-methyl)-amides inhibitors of cathepsin C” (2014).

SMILES strings stand for the structures.

The assay deals with Dipeptidyl peptidase 1 (Homo sapiens, UniProt P53634). The experiment in a line: Inhibition Assay: The following buffers were used: MES buffer: 25 mM MES, 50 mM NaCl, 5 mM DTT, adjusted to pH 6.0, containing 0.1% BSA; TAGZyme Buffer: 20 mM NaH2PO4, 150 mM NaCl adjusted to pH is 6.0 with HClAssay Conditions:The recombinant human DPPI was diluted in TAGZyme buffer to 1 U/ml (38.1 ug/ml, respectively), and then activated by mixing in a 1:2 ratio with a Cysteamine aqueous solution (2 mM) and incubating for 5 mM at room temperature.Five uL test compound (final concentration 0.1 nM to 100 uM) in aqua bidest (containing 4% DMSO, final DMSO concentration 1%) were mixed with 10 uL of DPPI in MES buffer (final concentration 0.0125 ng/uL) and incubated for 10 min. Then, 5 uL of substrate in MES buffer (final concentration 50 uM) were added. The microtiter plates were then incubated at room temperature for […] Then, the reaction was stopped by adding 10 uL of Gly-Phe-DMK in MES-buffer (final concentration 1 uM).
Sequence of Dipeptidyl peptidase 1 (P53634 25-134 limits assumed): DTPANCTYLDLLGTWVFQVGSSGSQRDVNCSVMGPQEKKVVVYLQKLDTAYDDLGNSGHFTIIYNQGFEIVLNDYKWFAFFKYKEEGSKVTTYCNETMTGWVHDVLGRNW
Sequence of Dipeptidyl peptidase 1 (P53634 231-394 limits assumed): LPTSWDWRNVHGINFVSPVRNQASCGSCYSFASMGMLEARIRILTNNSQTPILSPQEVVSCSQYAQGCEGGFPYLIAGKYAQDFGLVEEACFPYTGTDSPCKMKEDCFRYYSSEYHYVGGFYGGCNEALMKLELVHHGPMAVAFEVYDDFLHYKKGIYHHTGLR
Sequence of Dipeptidyl peptidase 1 (P53634 395-463 limits assumed): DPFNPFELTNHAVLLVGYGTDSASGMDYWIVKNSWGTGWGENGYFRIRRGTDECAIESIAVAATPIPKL

Turning to `CN1C(=O)Cc2ccc(-c3sc(CC(C#N)NC(=O)[C@H]4N[C@@H]5CC[C@H]4C5)c(F)c3Br)cc21` (stereo partly specified), the Ki was found to be 3.6 nM.
